Test results published in ChEMBL document CHEMBL4507299, “Data for DCP probe PF-04554878” (2021).

How the values were obtained:
[1] = biological target: T1, Serine/threonine-protein kinase TAO3 (Homo sapiens) (UniProt Q9H2K8); test: TAOK3 Invitrogen kinase activity assay; conditions: Compound concentration 1.0 uM
T1 sequence (whole entry): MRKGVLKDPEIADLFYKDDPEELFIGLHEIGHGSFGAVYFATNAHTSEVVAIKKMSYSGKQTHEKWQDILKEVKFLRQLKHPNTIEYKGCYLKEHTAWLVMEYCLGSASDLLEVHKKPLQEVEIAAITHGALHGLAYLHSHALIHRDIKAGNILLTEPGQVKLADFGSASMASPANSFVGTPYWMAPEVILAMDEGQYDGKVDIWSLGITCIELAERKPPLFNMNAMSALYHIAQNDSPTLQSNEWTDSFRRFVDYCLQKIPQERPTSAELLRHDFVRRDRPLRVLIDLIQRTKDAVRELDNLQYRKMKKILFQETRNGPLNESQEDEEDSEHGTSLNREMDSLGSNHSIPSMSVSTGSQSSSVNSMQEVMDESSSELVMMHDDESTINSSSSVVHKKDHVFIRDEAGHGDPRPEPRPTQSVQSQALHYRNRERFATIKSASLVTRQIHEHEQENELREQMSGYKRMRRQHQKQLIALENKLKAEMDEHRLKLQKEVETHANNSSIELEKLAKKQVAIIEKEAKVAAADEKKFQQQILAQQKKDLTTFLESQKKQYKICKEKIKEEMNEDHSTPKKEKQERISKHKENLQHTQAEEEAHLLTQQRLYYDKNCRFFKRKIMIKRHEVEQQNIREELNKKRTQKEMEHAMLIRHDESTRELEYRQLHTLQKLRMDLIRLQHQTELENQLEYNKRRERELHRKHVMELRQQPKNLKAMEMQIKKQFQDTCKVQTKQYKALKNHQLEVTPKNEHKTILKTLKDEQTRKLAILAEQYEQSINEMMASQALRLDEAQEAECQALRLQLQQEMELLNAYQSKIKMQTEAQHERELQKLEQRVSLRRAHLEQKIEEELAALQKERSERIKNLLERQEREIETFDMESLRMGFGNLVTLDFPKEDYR

[2] = biological target: Protein kinase C beta type (Homo sapiens) (UniProt P05771); test: PKCbeta II Invitrogen kinase activity assay; conditions: Compound concentration 1.0 uM
[3] = biological target: T2, Inhibitor of nuclear factor kappa-B kinase subunit beta (Homo sapiens) (UniProt O14920); test: IKKβ Invitrogen kinase activity assay; conditions: Compound concentration 1.0 uM
T2 sequence (whole entry): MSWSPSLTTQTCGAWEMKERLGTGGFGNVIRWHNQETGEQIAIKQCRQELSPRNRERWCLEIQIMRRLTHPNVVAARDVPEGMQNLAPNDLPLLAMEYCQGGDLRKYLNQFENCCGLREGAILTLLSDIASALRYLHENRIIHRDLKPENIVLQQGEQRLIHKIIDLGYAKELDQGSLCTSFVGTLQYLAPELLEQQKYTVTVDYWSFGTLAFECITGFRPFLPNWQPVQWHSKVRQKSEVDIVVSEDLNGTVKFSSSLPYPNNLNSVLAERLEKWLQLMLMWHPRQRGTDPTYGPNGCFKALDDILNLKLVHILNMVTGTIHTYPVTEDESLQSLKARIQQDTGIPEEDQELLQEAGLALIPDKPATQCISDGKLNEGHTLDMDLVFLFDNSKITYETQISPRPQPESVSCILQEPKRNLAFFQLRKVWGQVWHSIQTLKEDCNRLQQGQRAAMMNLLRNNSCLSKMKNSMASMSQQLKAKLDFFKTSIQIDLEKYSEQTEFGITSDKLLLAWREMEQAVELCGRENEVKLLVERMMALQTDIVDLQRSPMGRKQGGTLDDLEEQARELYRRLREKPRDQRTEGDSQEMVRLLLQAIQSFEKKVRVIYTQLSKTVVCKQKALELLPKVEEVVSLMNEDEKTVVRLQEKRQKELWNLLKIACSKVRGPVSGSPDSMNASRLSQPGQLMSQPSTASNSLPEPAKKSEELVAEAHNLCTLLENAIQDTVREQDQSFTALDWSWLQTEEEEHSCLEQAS

[4] = biological target: CDK6/cyclin D3 (Homo sapiens) (UniProt P30281+Q00534); test: CDK6/cyclinD3 Invitrogen kinase activity assay; assay type: protein-complex assay; conditions: Compound concentration 1.0 uM
[5] = biological target: T3, Tyrosine-protein kinase JAK3 (Homo sapiens) (UniProt P52333); conditions: Compound concentration 1.0 uM
T3 sequence (whole entry): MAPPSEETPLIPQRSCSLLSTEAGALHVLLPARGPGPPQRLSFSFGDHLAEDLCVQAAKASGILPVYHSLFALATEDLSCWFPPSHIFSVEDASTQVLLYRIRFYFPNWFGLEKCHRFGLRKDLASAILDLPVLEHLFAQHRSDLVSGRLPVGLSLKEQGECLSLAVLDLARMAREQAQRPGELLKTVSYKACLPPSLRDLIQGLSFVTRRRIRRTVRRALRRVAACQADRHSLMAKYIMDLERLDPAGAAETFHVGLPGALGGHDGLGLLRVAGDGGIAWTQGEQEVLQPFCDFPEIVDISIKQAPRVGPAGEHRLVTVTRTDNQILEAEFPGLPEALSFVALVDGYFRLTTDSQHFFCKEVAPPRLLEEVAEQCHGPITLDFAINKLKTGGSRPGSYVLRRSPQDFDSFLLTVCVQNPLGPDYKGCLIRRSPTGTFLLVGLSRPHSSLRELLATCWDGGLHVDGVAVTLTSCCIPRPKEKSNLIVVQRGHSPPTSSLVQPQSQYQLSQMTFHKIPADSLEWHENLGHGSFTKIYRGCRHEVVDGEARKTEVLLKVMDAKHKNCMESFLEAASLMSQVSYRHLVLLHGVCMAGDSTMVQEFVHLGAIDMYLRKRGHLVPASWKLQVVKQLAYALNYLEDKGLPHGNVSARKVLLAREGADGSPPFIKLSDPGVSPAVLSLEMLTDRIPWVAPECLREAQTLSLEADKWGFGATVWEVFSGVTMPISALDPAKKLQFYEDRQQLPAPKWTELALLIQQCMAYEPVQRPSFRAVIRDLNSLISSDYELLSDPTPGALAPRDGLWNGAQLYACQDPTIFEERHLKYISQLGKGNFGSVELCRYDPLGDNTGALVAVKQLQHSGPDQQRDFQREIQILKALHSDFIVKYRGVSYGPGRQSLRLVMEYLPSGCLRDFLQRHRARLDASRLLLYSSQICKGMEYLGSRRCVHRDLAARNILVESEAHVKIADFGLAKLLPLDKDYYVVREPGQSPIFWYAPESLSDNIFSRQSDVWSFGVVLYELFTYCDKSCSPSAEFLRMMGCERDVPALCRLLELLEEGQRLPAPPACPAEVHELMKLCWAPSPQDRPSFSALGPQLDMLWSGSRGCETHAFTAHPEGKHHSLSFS

[6] = biological target: D(2) dopamine receptor (Homo sapiens) (UniProt P14416); conditions: Compound concentration 10.0 uM

Measured: inhibition

Sequence of D(2) dopamine receptor (Homo sapiens) (P14416 whole entry): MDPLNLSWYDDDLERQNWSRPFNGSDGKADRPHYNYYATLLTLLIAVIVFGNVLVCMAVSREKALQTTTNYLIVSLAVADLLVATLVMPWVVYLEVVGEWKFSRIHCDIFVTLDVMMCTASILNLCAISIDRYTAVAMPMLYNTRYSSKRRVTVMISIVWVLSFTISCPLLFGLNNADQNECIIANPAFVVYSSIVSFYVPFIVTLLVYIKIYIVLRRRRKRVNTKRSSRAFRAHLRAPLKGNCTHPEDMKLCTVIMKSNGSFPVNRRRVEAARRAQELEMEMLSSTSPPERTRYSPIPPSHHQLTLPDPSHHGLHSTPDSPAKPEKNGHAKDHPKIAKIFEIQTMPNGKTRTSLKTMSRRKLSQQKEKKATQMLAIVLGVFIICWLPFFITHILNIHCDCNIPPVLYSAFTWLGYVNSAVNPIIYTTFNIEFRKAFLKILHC
Sequence of Protein kinase C beta type (Homo sapiens) (P05771 2-671 limits assumed): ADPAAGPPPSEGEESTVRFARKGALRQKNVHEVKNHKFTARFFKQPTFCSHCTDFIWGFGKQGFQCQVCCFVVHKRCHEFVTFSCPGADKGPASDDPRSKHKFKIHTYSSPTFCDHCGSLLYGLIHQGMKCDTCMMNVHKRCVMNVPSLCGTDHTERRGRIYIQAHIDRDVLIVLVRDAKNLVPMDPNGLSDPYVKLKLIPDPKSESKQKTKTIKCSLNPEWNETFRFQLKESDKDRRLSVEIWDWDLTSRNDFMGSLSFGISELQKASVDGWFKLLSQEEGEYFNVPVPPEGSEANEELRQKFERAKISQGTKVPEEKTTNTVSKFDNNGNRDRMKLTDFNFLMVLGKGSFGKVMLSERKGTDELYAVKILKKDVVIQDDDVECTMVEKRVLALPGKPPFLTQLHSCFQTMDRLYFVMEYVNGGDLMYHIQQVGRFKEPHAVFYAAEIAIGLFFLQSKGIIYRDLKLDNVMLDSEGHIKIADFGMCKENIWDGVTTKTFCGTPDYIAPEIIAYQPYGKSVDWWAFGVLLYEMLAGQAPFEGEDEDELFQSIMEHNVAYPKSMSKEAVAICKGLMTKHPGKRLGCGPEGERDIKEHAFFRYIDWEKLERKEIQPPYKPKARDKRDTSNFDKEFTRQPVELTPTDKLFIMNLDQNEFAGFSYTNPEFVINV

CNC(=O)c1ccc(Nc2ncc(C(F)(F)F)c(NCc3nccnc3N(C)S(C)(=O)=O)n2)cc1 [DEFACTINIB]
inactive: [1] 66% | [2] 15% | [3] 4% | [4] 13% | [5] 94%

CN(c1ccnc(CNc2nc(Nc3ccc4c(c3)CC(=O)N4)ncc2C(F)(F)F)n1)S(C)(=O)=O [PF-00911705]
inactive: [6] 9.12%
